{
  "source": "paper PMC3526234",
  "about": "(Diabetes Care, 2012)",
  "origin": "cited, not measured here",
  "tested_on": "patients with diabetic gastroparesis",
  "conditions": "intravenous erythromycin, 10 patients with diabetic gastroparesis",
  "data": [
    {"compound": "CC[C@H]1OC(=O)[C@H](C)[C@@H](O[C@H]2C[C@@](C)(OC)[C@@H](O)[C@H](C)O2)[C@H](C)[C@@H](O[C@@H]2O[C@H](C)C[C@H](N(C)C)[C@H]2O)[C@](C)(O)C[C@@H](C)C(=O)[C@H](C)[C@@H](O)[C@]1(C)O", "note": "[erythromycin]", "values": [
      {"measurement": "estimated effect relative to placebo on percent retained at 60 min", "result": 75, "unit": "%"}
    ]}
  ]
}
